Measurements from ChEMBL document CHEMBL3507680, “University of Dundee, Gates Library screen for HepG2 cell viability”.

Experiment: Human HepG2 cell viability assay in 384 well format
Assay type: toxicity, cell-based
Parameters: dose 125 nL, time 70.5 hour; cytotoxicity at 70.5 h: concentration not given beside the values
Settings: HepG2 cells, read-out: Inhibition

Row | Structure (SMILES) | cytotoxicity at 70.5 h
1 | CN1C(=O)CCCC12CCCN(C(=O)c1cccc(C(F)(F)F)c1)C2 (centres undefined) | -6.35%
2 | O=C([C@H]1CCCO1)N1CCC2(CCCN(CCOc3ccccc3)C2)C1 (some centres undefined) | 20.8%
3 | O=C1COC2(CCN(C(=O)c3ccoc3)CC2)CN1Cc1cccnc1 | -6.92%
4 | O=C(C1CCOCC1)N1CC[C@@H](O)[C@@H]1Cc1ccccc1 | 1.56%
5 | CN(C)CCN1CCC2(CCN(C(=O)c3cccnc3)CC2)C1=O | -4.08%
6 | CN1CC2(CCCCN2C(=O)c2ccsc2)CC1=O (centres undefined) | 5.12%
7 | O=C(C1CCCO1)N1CCC2(CC1)COCCN2CC1CC1 (centres undefined) | 2.48%
8 | Cc1nc(N2CCCC2)nc2c1CN(C(=O)N(C)C)CC2 | -1.53%
9 | COc1cc(CN2C[C@@H]3CNC(=O)[C@H](C)[C@@H]3C2)cc(OC)c1 | -9.46%
10 | CN(CC1CC1)c1ccc2ccc(C(=O)NC3CCCCC3)cn12 | 12.9%
11 | c1cncc(-c2ccc3c(c2)C2(CCNCC2)CC3)c1 | 52.4%
12 | CCN1C(=O)C2(CCOCC2)c2cc(NC(=O)COC)ccc21 | 14.9%
13 | COCC1CN(C(=O)c2cccc(C)n2)Cc2ncnn2C1 (centres undefined) | 17.7%
14 | COCC1CN(C(=O)c2cnc(C)cn2)Cc2ncnn2C1 (centres undefined) | 19%
15 | CN1CCN(C(=O)N2CCCC2)Cc2cccnc21 | -6.35%
16 | CCN1C(=O)C2(CCOCC2)c2cc(NC(=O)c3cnoc3C)ccc21 | -6.08%
17 | Cc1occc1C(=O)N1CCC2(CCN(Cc3nccs3)CC2)C1 | -5.43%
18 | Cc1nc([C@@H]2C[C@@H]3CCN(Cc4cnn(C)c4)C[C@H]3O2)sc1C | -5.41%
19 | Cn1cc(CN2CC[C@H]3C[C@@H](c4nc(C5CC5)cs4)O[C@@H]3C2)cn1 | 5.37%
20 | CN(C)C(=O)CO[C@@H]1CN(Cc2ccccc2)[C@@H]2CCCO[C@@H]21 | 6.93%
21 | O=C(O)c1ccc2c(c1)C1(CCCCC1)CN2C(=O)c1cccs1 | -4.48%
22 | O=C(c1ccsc1)N1C[C@H]2CN(Cc3cccc(F)c3)C(=O)[C@H]2C1 | -1.45%
23 | COCCC(=O)NCC1Cn2nnc(-c3cccc(F)c3)c2CO1 (centres undefined) | -0.67%
24 | Cn1ccnc1CN1CC2(CCN(Cc3ccncc3)C2)C1 | -0.993%
25 | Cc1nc(-c2nc(C(=O)N3CCOCC3)c3ccccn23)cn1C(C)C | -5.18%
26 | Cc1cccc(CN2C[C@@H]3CN(C(=O)c4cnccn4)C[C@@H]3C2=O)c1 | -2.3%

Row | Structure (SMILES) | cytotoxicity at 70.5 h
27 | O=C(c1ccoc1)N1CCC2(C1)CN(c1nccs1)C2 | -2.55%
28 | Cc1ccc2c(c1)CCC21CCN(CCO)CC1 | -1.71%
29 | COCC(=O)N1C[C@H]2CC[C@@]3(N=C(c4ccccc4)NC3=O)[C@H]2C1 | -3.3%
30 | O=C(N1CCCC1)N1C[C@H]2CC[C@@]3(N=C(c4ccccc4)NC3=O)[C@H]2C1 | 12.6%
31 | Cc1cnc(C(=O)N2C[C@@H]3[C@@H](C2)OCC(=O)N3CC2CCCC2)cn1 | 15.5%
32 | O=C(C1CCOC1)N1CCc2ncnc(-c3cccnc3)c2CC1 (centres undefined) | 15.9%
33 | CC(=O)N1[C@H](Cn2cncn2)C[C@@H]2CN(C(=O)NC3CC3)CC[C@@H]21 | 5.13%
34 | O=C(C1CCOC1)N1CCc2ncnc(C3CC3)c2CC1 (centres undefined) | 0.686%
35 | O=C(c1cnccn1)N1C[C@@H]2[C@@H](C1)OCC(=O)N2CC1CCCC1 | 1.12%
36 | CN1CCN(Cc2cn3c(n2)CN(C(=O)N2CCCC2)CC3)CC1 | 0.892%
37 | CCN1C[C@H]2CCN(c3ncccn3)CC[C@H]2S1(=O)=O | 1.89%
38 | O=C(c1ccco1)N1CCCC2(CN(Cc3ccoc3)CCO2)C1 (centres undefined) | -0.421%
39 | O=C([C@H]1COC[C@H]2CN(C3CCOCC3)C[C@H]21)N1CCCCO1 | 4.24%
40 | O=C(NCC1CC1)C1CN(C(=O)Cc2cccs2)CC12CCOCC2 (centres undefined) | 1.89%
41 | CCOCC1CN(C(=O)c2cccs2)Cc2nn(C)cc21 (centres undefined) | -2.33%
42 | Cc1cnc(C(=O)N2C[C@H]3CCCC(OCc4cccnc4)[C@H]3C2)cn1 (some centres undefined) | -3.45%
43 | COCc1cnc2n1CCN(C(=O)C1=CCCCC1)C2C (centres undefined) | 17.6%
44 | COc1ncccc1C(=O)N1CC[C@H]2C[C@@H](C)O[C@@H]2C1 | -21.5%
45 | O=C1CCC2(CCN(c3ncc(F)cn3)CC2)N1CCN1CCCC1 | 25.9%
46 | CCOC(=O)N1CC2(CCNCC2)c2cc(Cl)ccc21 | -11.6%
47 | CC(C)C[C@H](N)C(=O)N1CC2(CCNCC2)c2cc(Cl)ccc21 | 3.38%
48 | CC(=O)N1CCN(Cc2ccc(F)cc2)CC2(CC(=O)N(C)C2)C1 (centres undefined) | 23.3%
49 | CCN1CCOCC12CCN(C(=O)C1CCC1)CC2 | 14.1%
50 | CC(=O)N1CCN(Cc2ccsc2)CC2(CC(=O)N(C)C2)C1 (centres undefined) | -12.2%
51 | Cc1cccc(CN2C(=O)CCC23CCN(C(=O)NC(C)C)CC3)n1 | -2.54%
52 | CN1CCN(C)C2(CCN(Cc3ccsc3)CC2)C1=O | 16.8%

Row | Structure (SMILES) | cytotoxicity at 70.5 h
53 | C[C@H]1C(=O)NC[C@H]2CN(Cc3cccc(F)c3)C[C@H]21 | -8.78%
54 | Cn1cc(CN2C[C@H]3CN(c4cncnc4)C(=O)[C@H]3C2)cn1 | -2.54%
55 | COc1ccc(CN2C[C@H]3CN(c4cncnc4)C(=O)[C@H]3C2)cc1 | -5.39%
56 | CN1CCN(C(=O)Cc2ccc(F)cc2)Cc2cccnc21 | 5.52%
57 | Cc1nc(CN2CCC3(CCN(C(=O)c4ccoc4C)CC3)C2)cs1 | -6.97%
58 | Cc1cnc(C(=O)N2CCCn3c(nc(CN(C)C)cc3=O)C2)cn1 | 9.93%
59 | CNC(=O)[C@H]1C[C@@H]2CN(S(=O)(=O)Cc3ccccc3)C[C@@H]2N1C | -3.87%
60 | COc1ccc(CN2CCOC3(CCCN(C(C)=O)C3)C2)cc1 (centres undefined) | -1.06%
61 | Cc1cnc(N2CC3(CCN(C(=O)c4cccnc4)C3)C2)nc1 | -4.83%
62 | Cc1cccc(CN2C[C@@H]3CN(C(=O)c4ccsc4)C[C@@H]3C2=O)n1 | -2.24%
63 | O=C([C@@H]1COC[C@H]2CN(C3CCOCC3)C[C@H]21)N1CCCO1 | 14.5%
64 | O=C1CC2(CCCCN2C(=O)c2ccco2)CN1c1cccnc1 (centres undefined) | 15.4%
65 | Cn1cccc1C(=O)N1CCCCC12CC(=O)N(c1cccnc1)C2 (centres undefined) | -3.4%
66 | COc1cccc(CN2CCC3(CCN(C(=O)C4CC=CC4)CC3)C2)c1 | -3.83%
67 | CC(=O)NCC(=O)N1CCn2cc(CN3CCCCC3)nc2C1 | -1.68%
68 | O=C(C1CC1)N1CCC2(CCN(Cc3cccc(F)c3)CC2)CC1 | -0.144%
69 | CC(=O)N1[C@H](Cn2cncn2)C[C@@H]2CN(c3ncc(F)cn3)CC[C@@H]21 | -0.528%
70 | O=C([C@H]1COC[C@H]2CN(C3CCOCC3)C[C@H]21)N1CCCO1 | -1.26%
71 | O=C(c1ccco1)N1CCCC2(CN(Cc3ccsc3)CCO2)C1 (centres undefined) | -5.26%
72 | O=C(c1ccco1)N1CCCC2(CN(Cc3cccs3)CCO2)C1 (centres undefined) | 1.5%
73 | COCC(=O)N1CCO[C@H]2[C@H](OCc3cccnc3)CC[C@@H]21 | 1.22%
74 | CN1CCN(C(=O)NC2CCCC2)Cc2cccnc21 | -4.32%
75 | Cc1nc(CN2CCOCC3(CCCN(c4cnccn4)C3)C2)cs1 (centres undefined) | -2.38%
76 | O=C(NC[C@]12COC[C@H]1CN(Cc1nccs1)C2)N1CCCC1 | -13.4%
77 | O=C(C[C@@H]1COC[C@H]2CN(Cc3ccc(F)cc3)C[C@@H]12)N1CCCCO1 | -14.5%
78 | COC1COC2(CCN(Cc3ccccc3Cl)CC2)C1 (centres undefined) | -14.5%

Row | Structure (SMILES) | cytotoxicity at 70.5 h
79 | O=C1CC[C@H]2[C@H](CCN2C(=O)C2CCOCC2)N1Cc1ccncc1 | -15.6%
80 | CNC(=O)[C@@]12CCCN(c3ncccn3)[C@@H]1CN(C)C2 | 29.8%
81 | CCN1CC2(CC1=O)CN(Cc1ccccn1)CCN(C(C)=O)C2 (centres undefined) | -10.2%
82 | CC(C)C(=O)N1CCN(Cc2ccccn2)CC2(CC(=O)N(C)C2)C1 (centres undefined) | -9.37%
83 | CN(C)CCN1C(=O)CCC12CCCN(C(=O)c1cccnc1)CC2 (centres undefined) | -5.29%
84 | CN(C)CCN1CCC2(CCN(C(=O)c3ccncc3)CC2)C1=O | -7.69%
85 | CC(=O)N1CCN(Cc2ccncc2)CC2(CC(=O)N(C)C2)C1 (centres undefined) | -7.88%
86 | Cc1nc(CN2CCC3(CC2)NC(=O)CC3c2ccncc2)cs1 (centres undefined) | -5.12%
87 | Cc1ccc(CN2CCC3(CC2)C(=O)N(CC(C)C)CCN3C)s1 | 22.7%
88 | CCN1CCN(C)C2(CCN(Cc3ccsc3)CC2)C1=O | -9.43%
89 | Cc1noc(C)c1CN1CCC2(CC1)CN(c1ccccn1)CCO2 | 17.3%
90 | CN1CCN(Cc2cccnc2)C2(CCN(c3ncccn3)C2)C1=O (centres undefined) | -5.32%
91 | Cc1cnc(N2CCC3(C2)C(=O)N(C)CCN3Cc2cccnc2)nc1 (centres undefined) | -5.14%
92 | COc1ccc(CN2CCC3(CCN(c4cccnc4)C3=O)C2)cc1 (centres undefined) | 1.92%
93 | c1cncc(COCc2nnc3n2CCN(CC2CC2)C3)c1 | 0.791%
94 | Cc1ncsc1CN1CCO[C@H]2[C@H](Oc3ccccn3)CC[C@@H]21 | -1.48%
95 | Fc1cccnc1O[C@@H]1CC[C@H]2[C@H]1OCCN2Cc1nccs1 | -2.76%
96 | CN(C)[C@@H]1CCN(c2ncc(F)cn2)[C@H]1Cc1ccccc1 | -4.36%
97 | COCCC(=O)N1CCn2cc(CN3CCN(C)CC3)nc2C1 | 0.542%
98 | Cc1cccc(CO[C@@H]2CC[C@H]3[C@H]2OCCN3Cc2nccs2)n1 | -0.937%
99 | CN(C)[C@@H]1CCN(c2ncc(F)cn2)[C@H]1Cc1cccnc1 | 17.3%
100 | Cc1cnc(N2CC[C@H]3[C@@H]2CCC(=O)N3c2cccnc2)nc1 | -2.59%
101 | c1ccc(CN2CCCC3(CCN(Cc4cccs4)C3)C2)nc1 (centres undefined) | -7.54%
102 | CN1CCN(Cc2cccnc2)C2(CCN(Cc3ccoc3)C2)C1=O (centres undefined) | 20.4%
103 | COc1ncccc1CN1CCC2(CC1)CN(c1ccccn1)CCO2 | -6.12%
104 | c1ccc(CO[C@@H]2CO[C@@]3(CCN(Cc4ccccn4)C3)C2)nc1 | -16%
